Reference: ChEMBL document CHEMBL3763101, “Gibbilimbol analogues as antiparasitic agents--Synthesis and biological activity against Trypanosoma cruzi and Leishmania (L.) infantum” (Bioorg Med Chem Lett, 2016)

Assays:
Trypanosoma cruzi [1] = assay: Antiparasitic activity against trypomastigote stage of Trypanosoma cruzi Y assessed as parasite viability after 24 hrs by MTT assay; format: functional, organism-based
[2] = Selectivity index, ratio of CC50 for mouse […] cells to IC50 for Trypanosoma cruzi Y trypomastigotes; format: functional
Trypanosoma cruzi [3] = assay: Antiparasitic activity against amastigote stage of Trypanosoma cruzi Y; format: functional, organism-based
[4] = Cytotoxicity against mouse NCTC-929 cells assessed as cell viability after 48 hrs by MTT assay; format: cell-based
Leishmania infantum [5] = assay: Antiparasitic activity against amastigote stage of Leishmania infantum infected in BALB/c mouse peritoneal macrophages assessed as reduction of parasite burden after 120 hrs by Giemsa staining-based light microscopic analysis; format: functional, organism-based
[6] = Selectivity index, ratio of CC50 for mouse […] cells to IC50 for Leishmania infantum promastigotes; format: functional, NCTC-929
Leishmania infantum [7] = assay: Antiparasitic activity against promastigote stage of Leishmania infantum assessed as parasite viability after 24 hrs by MTT assay; format: functional, organism-based
[8] = Selectivity index, ratio of CC50 for mouse […] cells to IC50 for Trypanosoma cruzi Y amastigotes; format: functional
Leishmania infantum [9] = assay: Potency index, ratio of gibbilimbol B IC50 to compound IC50 for amastigote stage of Leishmania infantum infected in BALB/c mouse peritoneal macrophages; format: functional
[10] = Selectivity index, ratio of CC50 for mouse […] cells to IC50 for Leishmania infantum amastigotes; format: functional
[11] = Trypanosoma cruzi, Y, 24 h, read-out: IC50
[12] = Leishmania infantum, 24 h, read-out: IC50
[13] = Trypanosoma cruzi, Y, read-out: IC50
[14] = Leishmania infantum, 120 h, read-out: IC50

Row | Compound | IC50 (Trypanosoma cruzi [1]; [11]) [µM] | IC50 (Trypanosoma cruzi [3]) | IC50 (Leishmania infantum [5]) | IC50 (Trypanosoma cruzi [1]) | IC50 (Trypanosoma cruzi [3]; [13]) [µM] | IC50 (Leishmania infantum [5]; [14]) [µM] | Ratio CC50/IC50 [2] | CC50 at 48 h [4] [µM] | Ratio CC50/IC50 [6] | IC50 (Leishmania infantum [7]; [12]) [µM] | Ratio CC50/IC50 [8] | Ratio IC50 (Leishmania infantum [9]) | Ratio CC50/IC50 [10] | IC50 (Leishmania infantum [7])
1 | CCCCCCCC/N=C/c1ccc(O)cc1 |  | Not Active | Not Active | Not Active |  |  |  | 99.2 | 5 | 19.9 |  |  |  | 
2 | CCCCCCCCNC(=O)c1ccc(O)cc1 | 26.5 | Not Active | Not Active |  |  |  | 1.7 | 45.4 | 1 | 45.1 |  |  |  | 
3 | CCCCCCCC(=O)/C=C/c1ccc(O)cc1 | 11.8 |  | Not Active |  | 22.5 |  | 7 | 82.8 | 1 | 82.7 | 3.7 |  |  | 
4 | CCCCCCCCNCc1ccc(O)cc1 | 17 |  |  |  | 5.5 | 1.8 | 1.4 | 23.5 | 0.8 | 28.6 | 4.3 | 52 | 13.1 | 
5 | CCCCNCc1ccc(O)cc1 |  | Not Active | Not Active | Not Active |  |  |  | > 300 | >9.5 | 31.6 |  |  |  | 
6 | CCCCOC(=O)c1ccc(O)cc1 [BUTYLPARABEN] |  |  | Not Active | Not Active | 26.4 |  |  | 168 |  |  | 6.4 |  |  | Not Active

Further lines, with some results ahead:

Row | IC50 (Trypanosoma cruzi [1]; [11]) [µM] | IC50 (Trypanosoma cruzi [3]) | IC50 (Leishmania infantum [5]) | IC50 (Trypanosoma cruzi [1]) | IC50 (Trypanosoma cruzi [3]; [13]) [µM] | IC50 (Leishmania infantum [5]; [14]) [µM] | Compound | Ratio CC50/IC50 [2] | CC50 at 48 h [4] [µM] | Ratio CC50/IC50 [6] | IC50 (Leishmania infantum [7]; [12]) [µM] | Ratio CC50/IC50 [8] | Ratio IC50 (Leishmania infantum [9]) | Ratio CC50/IC50 [10] | IC50 (Leishmania infantum [7])
7 | 4.5 | Not Active | Not Active |  |  |  | CCCCCCCCOC(=O)c1ccc(O)cc1 | 29 | 130 | 1.1 | 123 |  |  |  | 
8 | 6.1 | Not Active | Not Active |  |  |  | CCCCCCCC(O)/C=C/c1ccc(O)cc1 (centres undefined) | 8.1 | 49.5 | 0.4 | 125 |  |  |  | 
9 |  |  |  |  | 230 |  | O=C(Cn1ccnc1[N+](=O)[O-])NCc1ccccc1 [BENZNIDAZOLE] |  | 270 |  |  |  |  |  | 
10 |  |  |  |  |  | 16.4 | CCCCCCCCCCCCCCCCOP(=O)([O-])OCC[N+](C)(C)C [MILTEFOSINE] |  | 241 | 14.5 | 16.7 |  |  | 14.7 | 
